Holding throughout (assay): MIC determination by AFST-EUCAST standard methodology
The test system of assay [1] is C. parapsilosis ATCC 34136. The class given is cell-based. The settings on record: 24 h, visually and spectrophotometrically, read-out: Antifungal activity, expressed as MIC50. The method, then:
(§1) Determination of MICs by AFST-EUCAST Standard Methodology
(§2) Assay medium. The assay medium was RPMI […] without NaHCO3 and with L-glutamine (Sigma Aldrich, Italy), buffered at pH 7.0 with 0.165 M morpholinepropanesulphonic acid (Sigma Aldrich, Italy) and supplemented with 2% (w/v) glucose. The medium, prepared as double-strength solution, was sterilized by filtration and diluted 1:2 (v/v) with the fungal inoculum prepared in sterile distilled water.
(§3) The yeast isolates were grown on Sabouraud dextrose agar (Oxoid, Madrid, Spain) for 48 h at 37° C. before testing. Suspensions were prepared by combining five distinct colonies of each culture of >1 mm diameter. A spectrophotometric procedure for inoculum preparation was used. The final inoculum suspension, prepared in sterile distilled water, contained between 0.5·10^5 and 2.5·10^5 cfu/mL.
(§4) Stock solutions of test compounds were prepared in 100% dimethyl sulfoxide. Stock solutions were prepared as 100× concentration relative to the highest concentration in the antifungal activity test, and frozen at −70° C. until used.
(§5) Sterile plastic micro titration plates containing flat-bottomed wells were used. The plates contained serial dilution of the antifungal agents with a volume of assay medium of 100 μL/well. Two drug-free medium wells were used as sterility and growth controls. The trays were inoculated with 100 μL/well of the final inoculum, with the exception of sterility control wells. The range of concentrations tested for each drug was 1.25-80 μM. The microtitration plates were incubated at 37° C. for 24 h. The minimal inhibitory concentrations (MICs) were determined at 24 h both visually and spectrophotometrically.
(§6) By visual endpoint determination, MICs were determined according to a S-1-R scale, with S (susceptible) indicating an optical clear culture, I (intermediate susceptibility) indicating a slightly hazy culture, and R (resistant) indicating no reduction in turbidity. The MIC50 was defined as the lowest concentration of a drug which correspond to a S culture.
(§7) Microtitration plates were stirred using a microtitration plate shaker before reading to ensure uniform turbidity. MICs were obtained by measuring the absorbance at 450 nm with a microtitration plate reader. The value of the blank was subtracted from reading of the rest of the wells. Two endpoints were defined for each antifungal agent tested, with MIC80 indicating the lowest drug concentration resulting in a reduction of growth of 80% or more (determined spectrophotometrically) compared with the growth of the control, and MIC50 indicating the lowest drug concentration resulting in a reduction in growth of 50% (determined spectrophotometrically) compared with the growth of the control. The MIC50 was also defined as the spectrophotometric endpoint.

Another assay relates to C. parapsilosis 81E. The class given is cell-based. The settings on record: 24 h, visually and spectrophotometrically, read-out: Antifungal activity, expressed as MIC50. The protocol:
as §1, §2, §3, §4, §5, §6, §7

The next assay has as its system C. parapsilosis 64E. The class given is cell-based. The settings on record: 24 h, visually and spectrophotometrically, read-out: Antifungal activity, expressed as MIC50. The method, then:
as §1, §2, §3, §4, §5, §6, §7

The subject of the next assay is C. glabrata 70E. The class given is cell-based. The settings on record: C. glabrata 70E; 24 h, visually and spectrophotometrically; read-out: Antifungal activity, expressed as MIC50. The protocol:
as §1, §2, §3, §4, §5, §6, §7

In another assay the test system is C. krusei ATCC 14243. The class given is cell-based. The settings on record: 24 h, visually and spectrophotometrically, read-out: Antifungal activity, expressed as MIC50. The method, then:
as §1, §2, §3, §4, §5, §6, §7

In another assay the test system is C. tropicalis 86E. The class given is cell-based. The following applies: 24 h, visually and spectrophotometrically, read-out: Antifungal activity, expressed as MIC50. The protocol:
as §1, §2, §3, §4, §5, §6, §7

The test system of another assay is C. krusei 193T. It counts as cell-based. The settings on record: 24 h, visually and spectrophotometrically, read-out: Antifungal activity, expressed as MIC50. The protocol:
as §1, §2, §3, §4, §5, §6, §7

In a further assay the test system is C. albicans 15T. The class given is cell-based, Candida albicans. The settings on record: 24 h, visually and spectrophotometrically, read-out: Antifungal activity, expressed as MIC50. The method, then:
as §1, §2, §3, §4, §5, §6, §7

The next assay deals with C. albicans 4T. It counts as cell-based, Candida albicans. The settings on record: 24 h, visually and spectrophotometrically, read-out: Antifungal activity, expressed as MIC50. The method, then: as §1, §2, §3, §4, §5, §6, §7
The next assay concerns C. albicans 53T. The class given is cell-based, Candida albicans. The following applies: 24 h, visually and spectrophotometrically, read-out: Antifungal activity, expressed as MIC50. The protocol: as §1, §2, §3, §4, §5, §6, §7
The next assay has as its system C. albicans ATCC 60193. The class given is cell-based, Candida albicans. The following applies: 24 h, visually and spectrophotometrically, read-out: Antifungal activity, expressed as MIC50. The protocol: as §1, §2, §3, §4, §5, §6, §7

The term MIC50 denotes the lowest concentration that inhibits either 50% of growth or 50% of the strains tested, depending on the study.

In brackets after ≈: the same amount, converted by molar mass. Bounds are passed on as bounds.

`N=C(N)NCCCCCCCCNCCCCCCCCNC(=N)NCC1CC1` [Compound 12c]: the MIC50 was 80 µM (≈ 32.8 µg/mL) in assay [1]; 20 µM (≈ 8.19 µg/mL) with C. parapsilosis 81E; 5 µM (≈ 2.05 µg/mL) in the assay with C. parapsilosis 64E; 20 µM (≈ 8.19 µg/mL) in the assay with C. glabrata 70E; 5 µM (≈ 2.05 µg/mL) in the assay with C. krusei ATCC 14243; 5 µM (≈ 2.05 µg/mL) in the assay with C. tropicalis 86E. Moreover, the MIC50 in the assay with C. krusei 193T came to 10 µM (≈ 4.1 µg/mL); with C. albicans 15T, 20 µM (≈ 8.19 µg/mL); in the assay with C. albicans 4T, 10 µM (≈ 4.1 µg/mL); in the assay with C. albicans 53T, 10 µM (≈ 4.1 µg/mL); in the assay on C. albicans ATCC 60193, 20 µM (≈ 8.19 µg/mL).

Turning to `CC(C)=CCNC(=N)NCCCCCCCCNCCCCCCCCNC(=N)N` [Compound 12f], the MIC50 is listed as greater than 80 µM in assay [1]; 40 µM (≈ 16.9 µg/mL) in the assay with C. parapsilosis 81E; greater than 80 µM in the assay on C. parapsilosis 64E; 80 µM (≈ 33.9 µg/mL) in the assay with C. glabrata 70E; 40 µM (≈ 16.9 µg/mL) with C. krusei ATCC 14243; 20 µM (≈ 8.47 µg/mL) in the assay on C. tropicalis 86E. Further, the MIC50 is reported as 20 µM (≈ 8.47 µg/mL) in the assay with C. krusei 193T; 40 µM (≈ 16.9 µg/mL) in the assay with C. albicans 15T; 80 µM (≈ 33.9 µg/mL) in the assay on C. albicans 4T; 80 µM (≈ 33.9 µg/mL) in the assay on C. albicans 53T; 80 µM (≈ 33.9 µg/mL) in the assay on C. albicans ATCC 60193.

Turning to `N=C(NCCCCCCCCN1CCCCCCCCNC(=N)NC1=O)NCc1ccccc1` [Compound 13a], the MIC50 turned out to be 80 µM (≈ 37.7 µg/mL) in assay [1]; 20 µM (≈ 9.43 µg/mL) with C. parapsilosis 81E; 20 µM (≈ 9.43 µg/mL) in the assay on C. parapsilosis 64E; 40 µM (≈ 18.9 µg/mL) with C. glabrata 70E; 20 µM (≈ 9.43 µg/mL) in the assay with C. krusei ATCC 14243; 2.5 µM (≈ 1.18 µg/mL) in the assay with C. tropicalis 86E. Further, the MIC50 in the assay with C. krusei 193T was found to be 10 µM (≈ 4.72 µg/mL); in the assay with C. albicans 15T it was 5 µM (≈ 2.36 µg/mL); in the assay with C. albicans 4T, 2.5 µM (≈ 1.18 µg/mL); in the assay with C. albicans 53T, 2.5 µM (≈ 1.18 µg/mL); with C. albicans ATCC 60193, 2.5 µM (≈ 1.18 µg/mL).

As for `C#CCNC(=N)NCCCCCCCCN1CCCCCCCCNC(=N)NC1=O` [Compound 13b], the MIC50 was 40 µM (≈ 16.8 µg/mL) in assay [1]; 80 µM (≈ 33.6 µg/mL) in the assay with C. parapsilosis 81E; 40 µM (≈ 16.8 µg/mL) in the assay with C. parapsilosis 64E; 80 µM (≈ 33.6 µg/mL) with C. glabrata 70E; 80 µM (≈ 33.6 µg/mL) in the assay with C. krusei ATCC 14243; 5 µM (≈ 2.1 µg/mL) with C. tropicalis 86E. Moreover, the MIC50 with C. krusei 193T was 40 µM (≈ 16.8 µg/mL); in the assay on C. albicans 15T, 2.5 µM (≈ 1.05 µg/mL); in the assay with C. albicans 4T, 80 µM (≈ 33.6 µg/mL); with C. albicans 53T it was 5 µM (≈ 2.1 µg/mL); in the assay on C. albicans ATCC 60193, 2.5 µM (≈ 1.05 µg/mL).

On to `CC=CCNC(=N)NCCCCCCCCN1CCCCCCCCNC(=N)NC1=O` [Compound 13d], for which the MIC50 is 5 µM (≈ 2.18 µg/mL) in [1]; 5 µM (≈ 2.18 µg/mL) in the assay on C. parapsilosis 81E; 5 µM (≈ 2.18 µg/mL) with C. parapsilosis 64E; 20 µM (≈ 8.71 µg/mL) in the assay on C. glabrata 70E; 5 µM (≈ 2.18 µg/mL) in the assay with C. krusei ATCC 14243; 1.25 µM (≈ 0.545 µg/mL) with C. tropicalis 86E. The MIC50 came out at 5 µM (≈ 2.18 µg/mL) with C. krusei 193T; 1.25 µM (≈ 0.545 µg/mL) in the assay with C. albicans 15T; 1.25 µM (≈ 0.545 µg/mL) with C. albicans 4T; 2.5 µM (≈ 1.09 µg/mL) in the assay on C. albicans 53T; 2.5 µM (≈ 1.09 µg/mL) in the assay with C. albicans ATCC 60193.

The values are drawn from patent US8685953B2, “Linear and cyclic guanidine derivatives, method of preparation and uses thereof” (Universita Degli Studi Di Siena, priority 2008, dated 2014).
